Experimental data reported in patent US20250100959A1, “METHOD FOR STORING REDUCED COENZYME Q10” (KANEKA CORPORATION, priority 2021, published 2025).

Tests used:
[1] = Evaluation of oxidation stability: QH residual rate after storage, QH ratio by HPLC; format: physicochemical
Method: The weight ratio of reduced coenzyme Q10 to total coenzyme Q10 (namely, reduced coenzyme Q10/(oxidized coenzyme Q10+reduced coenzyme Q10)) is defined as “QH ratio”. The QH ratio was determined by the following HPLC analysis. For the evaluation of oxidation stability, a rate of the change in the QH ratio at the end of the evaluation from that at the beginning of the evaluation was defined as “QH residual rate”, and the QH residual rate determined by the following expression was used as a measure of oxidation stability.
QH residual rate (%)=100×QH ratio at the end of the evaluation/QH ratio at the beginning of the evaluation
Column: SYMMETRY C18 (manufactured by Waters); 250 mm (length), 4.6 mm (inner diameter)
Mobile phase: C2H5OH:CH3OH=4:3 (v:v)
Detection wavelength: 210 nm

[2] = Measurement of water activity (AquaLab Series 4TE); format: physicochemical; settings: for water activity in the packaged body: packaged body with controlled relative humidity; for water activity at 25° C.: composition or crystal as placed in the vial
Method: The water activity was measured with AquaLab Series 4TE (METER Group Inc.). A sample having a volume of about 5 ml in a sample dish was placed in AquaLab Series 4TE, and the water activity at 25° C., was measured.

[3] = sealed aluminum laminate bag, packed at controlled relative humidity, stored at 25° C., 4 weeks
[4] = packaged body with controlled internal relative humidity, stored at 40° C., 2 weeks

| QH residual rate (%) [1, 4] | Molecule | QH residual rate (%) [1, 3] | water activity in the packaged body [2] | water activity at 25° C. [2] | also measured |
| --- | --- | --- | --- | --- | --- |
| – | COc1c(O)c(C)c(C/C=C(\C)CC/C=C(\C)CC/C=C(\C)CC/C=C(\C)CC/C=C(\C)CC/C=C(\C)CC/C=C(\C)CC/C=C(\C)CC/C=C(\C)CCC=C(C)C)c(O)c1OC [Example 4, reduced coenzyme Q10] | 95.3% | 0.85 | – | – |
| 92.2% | co-crystal composed of QH and nicotinamide [Example 10] | – | 0.53 | – | – |
| – | COc1c(O)c(C)c(C/C=C(\C)CC/C=C(\C)CC/C=C(\C)CC/C=C(\C)CC/C=C(\C)CC/C=C(\C)CC/C=C(\C)CC/C=C(\C)CC/C=C(\C)CCC=C(C)C)c(O)c1OC [Comparative Example 2, reduced coenzyme Q10] | – | – | 0.13 | QH residual rate (%) ([1]; sealed glass vial, stored at 25° C., relative humidity 60%, 4 weeks): 33.3% |
| – | COc1c(O)c(C)c(C/C=C(\C)CC/C=C(\C)CC/C=C(\C)CC/C=C(\C)CC/C=C(\C)CC/C=C(\C)CC/C=C(\C)CC/C=C(\C)CC/C=C(\C)CCC=C(C)C)c(O)c1OC [Example 3, reduced coenzyme Q10] | 92.3% | 0.50 | – | – |
| 82.6% | co-crystal composed of QH and nicotinamide [Comparative Example 3] | – | 0.48 | – | – |
| – | COc1c(O)c(C)c(C/C=C(\C)CC/C=C(\C)CC/C=C(\C)CC/C=C(\C)CC/C=C(\C)CC/C=C(\C)CC/C=C(\C)CC/C=C(\C)CC/C=C(\C)CCC=C(C)C)c(O)c1OC [Comparative Example 1, reduced coenzyme Q10] | – | – | 0.17 | QH residual rate (%) ([1]; sealed glass vial, stored at 40° C., relative humidity 75%, 4 weeks): 87.5% |
